Literature values in patent US6660297B2, “Nutritional supplement to treat macular degeneration” (Bausch & Lomb Incorporated, priority 2001, dated 2003).
Where two headings read alike, the source gives them in different places.

Columns and labels:
[1] = 1.0 mg equal to 1 IU
[2] = in vivo
[3] = in vivo; remark: listed apart in the source
[4] = consumed daily
[5] = not given; remark: listed apart in the source
[6] = tested on: macular degeneration; conditions: 80 mg of zinc versus placebo
[7] = in vivo; remark: listed apart in the source

CC(=O)Oc1c(C)c(C)c2c(c1C)CC[C@@](C)(CCC[C@H](C)CCC[C@H](C)CCCC(C)C)O2 (racemic) [dl-alpha tocopheryl acetate]
level at which no adverse effects have been observed [1]: ≤ 800 mg

CC1=C(/C=C/C(C)=C/C=C/C(C)=C/C=C/C=C(C)/C=C/C=C(C)/C=C/C2=C(C)CCCC2(C)C)C(C)(C)CCC1 [beta-carotene]
observed risk in individuals who receive 20 mg/day (male smokers): increased risk of lung cancer
observed risk in individuals who receive 20 mg/day (men with previous myocardial infarction): increased risk of fatal coronary heart attacks
dosage level with no observed adverse effects (healthy, non-smokers): ≤ 25 mg per day
efficiency of conversion to vitamin A in the body [2]: approximately 50%

[Cu] [copper]
effect on zinc absorption [3]: does not appear to have a deleterious effect

O=C1O[C@H]([C@@H](O)CO)C(O)=C1O [vitamin C, Ascorbic acid]
daily intake without any known adverse effects [4]: ≥ 1,000 mg

[O]=[Zn] [zinc oxide]
tolerability in the digestive system ([5]; in vivo): well tolerated

[Zn] [zinc]
tolerability ([5]; about 200 mg per day): well tolerated
side effects ([5]; about 200 mg per day, attributable to copper deficiency): potential side effects such as anemia
retarding macular degeneration changes [6]: significantly better than placebo

vitamin E
time stored vitamin E contributes to the total body pool [7]: up to one
